Measurements published in patent publication US9376700B2, “Methods of modifying N-termini of a peptide or protein using transferases” (The Trustees of the University of Pennsylvania, priority 2012, dated 2016).

Target: E. coli aminoacyl transferase (AaT) (Escherichia coli, UniProt P0A8P1)
Assay: LysAlaAcm ligation assay: AaT-catalyzed transfer from aminoacyl adenosine donor to LysAlaAcm, HPLC at 325 nm
Format: biochemical
Design: made in house; host or cells: E. coli BL21-Gold (DE3), plasmid pEG6, Ni-NTA purified
Details: for Ligated Product Yield (%): 4 h; for Transfer to LysAlaAcm by AaT (in words): reactions analyzed after 4 h
Experimental: Each ligation reaction, 125 μL total volume, contained the following reagents: aminoacyl adenosine donor (1 mM), recombinant His10-tagged E. coli aminoacyl transferase (2.26 μM), and LysAlaAcm (100 μM) in the AaT Ligation Buffer (50 mM HEPES pH 8.0, 150 mm KCl, 10 mM MgCl2). The reaction mixtures were incubated at 37° C. for four hours and quenched with 1% acetic acid. The proteins were extracted from the reactions via acetone precipitation. The reactions were precipitated using 4× reaction volume of acetone and cooled at −20° C. for 1 h. Next, the reactions were centrifuged at 13,200 rpm at 4° C. for 20 min to separate the reaction from precipitated protein. The supernatant was transferred to fresh 1.5 mL centrifuge tubes and allowed for acetone evaporation overnight at room temperature. After acetone evaporation, the supernatant was dried in a Speedvac (Savant, Thermo Scientific, Fisher Inc.) for 30 min to remove residual acetone. The resulting reaction volume was dissolved up to 1.2 mL using Milli-Q water and analyzed by HPLC (gradient below) to determine ligation yield by integration of separated peak intensities monitored at 325 nm. Collected HPLC fractions were characterized through MALDI MS analysis. […] Reactions using Phe-pdCpA as donor were carried out in an identical fashion (Ellman, et al., 1991, Methods Enzymol. 202:301-336).
All HPLC analyses of LysAlaAcm ligations were monitored on an Agilent HPLC using a Waters C18 column (Milford, Mass.).
All HPLC analyses of LysAlaAcm ligations were monitored as described elsewhere herein (Gradient 1).
The extent of transfer was evaluated by HPLC analysis of reactions with adenosyl donor, AaT or BpT, and an aminocoumarin-labeled reporter peptide (for AaT, LysAlaAcm was used as previously described by Tirrell and co-workers; for BpT, AspAlaAcm was used in an analogous fashion) (Connor et al., 2008, ChemBioChem 9:366-369). Monitoring LysAlaAcm or AspAlaAcm acylation in crude reaction mixtures using absorbance at 325 nm conveniently eliminates background due to other proteins and nucleic acids, although some non-natural amino acids such as naphthylalanine (Nap) and methoxycoumarinylalanine (Mcm) also absorb in this range.
To evaluate substrate scope, reactions were analyzed after 4 h, when transfer should be complete for the fully enzymatic reaction with Phe tRNA synthetase (Connor et al., 2008, ChemBioChem 9:366-369).

[1] = single addition of 1 mM donor, 100 μM LysAlaAcm, 2.26 μM AaT, 37° C., no additive

E. coli aminoacyl transferase (AaT), sequence (P0A8P1 whole entry): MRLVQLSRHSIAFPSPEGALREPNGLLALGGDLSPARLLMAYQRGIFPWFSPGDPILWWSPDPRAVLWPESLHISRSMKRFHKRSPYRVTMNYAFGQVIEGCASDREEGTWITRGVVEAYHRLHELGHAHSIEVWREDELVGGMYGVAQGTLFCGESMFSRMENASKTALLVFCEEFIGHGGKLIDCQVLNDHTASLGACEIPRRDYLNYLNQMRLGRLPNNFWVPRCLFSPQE

Compound | Ligated Product Yield (%) [1] | Ligated Product Yield (%) (single addition of donor, additive 100 μM PheLysAlaAcm) | Transfer to LysAlaAcm by AaT (in words) | Product inhibition of NapLysAlaAcm (5d) production from Nap-A (4d) (100 μM (1 equiv) added, standard 4 h transfer assay)
Nc1ncnc2c1ncn2[C@@H]1O[C@H](CO)[C@@H](O)[C@H]1OC(=O)[C@@H](N)Cc1ccc2ccccc2c1 [4d, (S)-(2R,3R,4R,5R)-2-(6-amino-9H-purin-9-yl)-4-hydroxy-5-(hydroxymethyl)tetrahydrofuran-3-yl 2-amino-3-(naphthalen-2-yl)propanoate] | 95.4 ± 0.4% | 93.8 ± 0.3% |  | 
CN[C@@H](Cc1ccccc1)C(=O)O[C@@H]1[C@H](O)[C@@H](CO)O[C@H]1n1cnc2c(N)ncnc21 [4e, (S)-(2R,3R,4R,5R)-2-(6-amino-9H-purin-9-yl)-4-hydroxy-5-(hydroxymethyl)tetrahydrofuran-3-yl 2-(methylamino)-3-phenylpropanoate] | 0.6 ± 0.1% |  | transferred, albeit with low yield | 
CC(=O)N[C@@H](Cc1ccccc1)C(=O)O[C@@H]1[C@H](O)[C@@H](CO)O[C@H]1n1cnc2c(N)ncnc21 [4f, (S)-(2R,3R,4R,5R)-2-(6-amino-9H-purin-9-yl)-4-hydroxy-5-(hydroxymethyl)tetrahydrofuran-3-yl 2-acetamido-3-phenylpropanoate] | 5f not observed |  | poor substrates | 
[N-]=[N+]=N[C@@H](Cc1ccccc1)C(=O)O[C@@H]1[C@H](O)[C@@H](CO)O[C@H]1n1cnc2c(N)ncnc21 [4g, (S)-(2R,3R,4R,5R)-2-(6-amino-9H-purin-9-yl)-4-hydroxy-5-(hydroxymethyl)tetrahydrofuran-3-yl 2-azido-3-phenylpropanoate] | 5g not observed^c |  | poor substrates | 
COc1ccc2c(C[C@H](N)C(=O)O[C@@H]3[C@H](O)[C@@H](CO)O[C@H]3n3cnc4c(N)ncnc43)cc(=O)oc2c1 [4h, (S)-(2R,3R,4R,5R)-2-(6-amino-9H-purin-9-yl)-4-hydroxy-5-(hydroxymethyl)tetrahydrofuran-3-yl 2-amino-3-(7-methoxy-2-oxo-2H-chromen-4-yl)propanoate] | 5h not observed |  | too large | 
Nc1ncnc2c1ncn2[C@@H]1O[C@H](CO)[C@@H](O)[C@H]1OC(=O)[C@@H](N)Cc1ccc(C(=O)c2ccccc2)cc1 [4i, (S)-(2R,3R,4R,5R)-2-(6-amino-9H-purin-9-yl)-4-hydroxy-5-(hydroxymethyl)tetrahydrofuran-3-yl 2-amino-3-(4-benzoylphenyl)propanoate] | 9.2 ± 0.3% |  | poor substrate | 
CSCC[C@H](N)C(=O)O[C@@H]1[C@H](O)[C@@H](CO)O[C@H]1n1cnc2c(N)ncnc21 [4j, (S)-(2R,3R,4R,5R)-2-(6-amino-9H-purin-9-yl)-4-hydroxy-5-(hydroxymethyl)tetrahydrofuran-3-yl 2-amino-4-(methylthio)butanoate] | 21.9% |  |  | 
CSSC[C@H](N)C(=O)O[C@@H]1[C@H](O)[C@@H](CO)O[C@H]1n1cnc2c(N)ncnc21 [4k, (R)-(2R,3R,4R,5R)-2-(6-amino-9H-purin-9-yl)-4-hydroxy-5-(hydroxymethyl)tetrahydrofuran-3-yl 2-amino-3-(methyldisulfanyl)propanoate] | 20.1% |  |  | 
CSSCC[C@H](N)C(=O)O[C@@H]1[C@H](O)[C@@H](CO)O[C@H]1n1cnc2c(N)ncnc21 [4n, (S)-(2R,3R,4R,5R)-2-(6-amino-9H-purin-9-yl)-4-hydroxy-5-(hydroxymethyl)tetrahydrofuran-3-yl 2-amino-4-(methyldisulfanyl)butanoate] | 27.8% |  |  | 
PheLysAlaAcm |  |  |  | did not significantly inhibit
